Consider 5 compounds from publication PMC3285241 (ACS chemical neuroscience, 2011).

Where two headings read alike, the source gives them in different places. Some results are limits rather than exact numbers.

Data set [1] has as its target Cav3.2 channel expressed in HEK293 cells (Homo sapiens, UniProt O95180). In words: T-type calcium channel cell-based FDSS Ca2+ flux. (Calcium assays in cells follow changes in intracellular calcium, usually with a dye or a luminescent sensor.)
Another data set addresses Cav3.3 (Homo sapiens, UniProt Q9P0X4). Nature of the data set: Cav3.3 IonWorks Quattro population patch clamp electrophysiology. In kind it is cell-based. In general terms: The patch-clamp technique gives a direct electrical read-out from membranes.
The subject of data set [2] is 68 GPCRs, ion channels and transporters. In words: Ricerca Lead Profiling Screen. As to conditions: 10 μM; significant = inhibition of radio ligand binding > 50%.
The next data set concerns sodium channel site 2. Nature of the data set: Ricerca Lead Profiling Screen, sodium channel site 2. Type of data set: binding. As to conditions: 10 μM.
The next data set addresses sigma 1 (Homo sapiens, UniProt Q99720). In words: Ricerca Lead Profiling Screen, sigma 1. Type of data set: binding. Conditions: 10 μM.
Another data set deals with L-type calcium channels. In words: Ricerca Lead Profiling Screen, L-type calcium channel. Type of data set: binding. As to conditions: @10 μM.
For the next data set, the target named is N-type calcium channels (Rattus norvegicus, UniProt Q02294). In words: Ricerca Lead Profiling Screen, N-type calcium channel. Type of data set: binding. As to conditions: read-out: % inhibition, N-type calcium channels.
N-type calcium channels, sequence (Q02294 whole entry): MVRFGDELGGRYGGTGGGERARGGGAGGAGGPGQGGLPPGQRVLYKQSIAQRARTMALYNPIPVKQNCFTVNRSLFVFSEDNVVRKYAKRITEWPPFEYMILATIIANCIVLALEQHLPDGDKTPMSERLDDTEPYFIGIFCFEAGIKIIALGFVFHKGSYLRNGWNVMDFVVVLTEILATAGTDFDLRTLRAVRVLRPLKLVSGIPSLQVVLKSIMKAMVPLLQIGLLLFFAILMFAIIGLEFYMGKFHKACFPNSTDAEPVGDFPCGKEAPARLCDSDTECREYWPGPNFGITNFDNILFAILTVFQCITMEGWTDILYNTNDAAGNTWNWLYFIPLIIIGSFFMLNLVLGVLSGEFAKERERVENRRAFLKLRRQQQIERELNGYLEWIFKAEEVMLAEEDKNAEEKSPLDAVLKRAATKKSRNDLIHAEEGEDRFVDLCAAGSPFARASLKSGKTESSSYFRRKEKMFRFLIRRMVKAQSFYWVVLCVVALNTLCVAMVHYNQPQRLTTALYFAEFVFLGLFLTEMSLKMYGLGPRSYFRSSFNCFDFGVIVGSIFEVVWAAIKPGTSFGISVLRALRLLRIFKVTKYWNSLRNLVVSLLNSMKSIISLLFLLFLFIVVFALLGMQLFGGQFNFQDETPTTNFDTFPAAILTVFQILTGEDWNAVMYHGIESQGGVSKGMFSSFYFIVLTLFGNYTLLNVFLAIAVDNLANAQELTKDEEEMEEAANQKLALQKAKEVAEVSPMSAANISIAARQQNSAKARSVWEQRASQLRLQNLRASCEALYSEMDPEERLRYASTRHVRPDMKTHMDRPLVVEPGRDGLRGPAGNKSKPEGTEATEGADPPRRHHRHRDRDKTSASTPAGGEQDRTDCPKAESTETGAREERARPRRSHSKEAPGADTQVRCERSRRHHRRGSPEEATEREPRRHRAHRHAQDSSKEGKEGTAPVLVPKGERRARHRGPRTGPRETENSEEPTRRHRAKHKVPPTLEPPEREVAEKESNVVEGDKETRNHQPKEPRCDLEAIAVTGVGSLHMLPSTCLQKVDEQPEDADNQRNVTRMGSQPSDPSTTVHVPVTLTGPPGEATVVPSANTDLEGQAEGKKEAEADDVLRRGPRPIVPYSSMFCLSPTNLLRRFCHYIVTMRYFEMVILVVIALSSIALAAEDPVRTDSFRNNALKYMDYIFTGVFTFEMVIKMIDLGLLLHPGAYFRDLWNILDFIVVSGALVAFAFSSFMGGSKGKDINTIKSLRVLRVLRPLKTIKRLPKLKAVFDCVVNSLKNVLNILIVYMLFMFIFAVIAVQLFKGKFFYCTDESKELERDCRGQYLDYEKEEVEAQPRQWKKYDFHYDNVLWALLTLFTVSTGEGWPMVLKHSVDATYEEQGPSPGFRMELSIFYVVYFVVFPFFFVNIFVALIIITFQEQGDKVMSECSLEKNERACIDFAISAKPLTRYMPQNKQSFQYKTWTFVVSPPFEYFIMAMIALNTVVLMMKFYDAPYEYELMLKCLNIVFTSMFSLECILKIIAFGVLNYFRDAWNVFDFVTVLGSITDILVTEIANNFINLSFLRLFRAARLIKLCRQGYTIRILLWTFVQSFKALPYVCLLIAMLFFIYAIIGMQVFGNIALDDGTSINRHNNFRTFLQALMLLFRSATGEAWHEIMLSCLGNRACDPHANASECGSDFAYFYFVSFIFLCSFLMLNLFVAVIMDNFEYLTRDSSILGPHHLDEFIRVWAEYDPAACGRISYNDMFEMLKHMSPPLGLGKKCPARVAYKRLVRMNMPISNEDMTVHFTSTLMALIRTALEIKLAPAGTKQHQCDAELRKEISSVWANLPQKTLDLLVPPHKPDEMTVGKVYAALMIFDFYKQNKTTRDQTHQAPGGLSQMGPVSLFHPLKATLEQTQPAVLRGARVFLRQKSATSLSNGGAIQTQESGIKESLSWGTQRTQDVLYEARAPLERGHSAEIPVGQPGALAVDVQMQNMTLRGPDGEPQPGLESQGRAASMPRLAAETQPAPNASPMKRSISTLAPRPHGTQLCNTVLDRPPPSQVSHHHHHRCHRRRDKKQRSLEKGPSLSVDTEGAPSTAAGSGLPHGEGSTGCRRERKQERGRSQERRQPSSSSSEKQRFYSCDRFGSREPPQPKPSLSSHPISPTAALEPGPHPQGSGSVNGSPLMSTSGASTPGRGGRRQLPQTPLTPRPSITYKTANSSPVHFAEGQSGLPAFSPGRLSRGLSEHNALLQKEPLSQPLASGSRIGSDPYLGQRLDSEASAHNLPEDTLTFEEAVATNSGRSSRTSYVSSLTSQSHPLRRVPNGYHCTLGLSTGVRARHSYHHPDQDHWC
In a further data set the target is hERG (Homo sapiens, UniProt Q12809). In words: Ricerca Lead Profiling Screen, hERG. In kind it is binding. For orientation: The hERG channel carries a current that helps repolarise heart muscle cells.
The nature of data set [3]: Plasma-brain exposure profile PK study. In kind it is in vivo. Conditions: male, Sprague-Dawley, rat, intraperitoneal, 10 mg/kg.
The test system of data set [4] is T-type calcium currents in STN neurons. In words: Brain slice voltage clamp, T-type calcium current in STN neurons. Type of data set: cell-based, rat.
For data set [5], the system named is low threshold spike (LTS) in STN neurons. Nature of the data set: Brain slice current clamp, low threshold spike. Type of data set: cell-based, rat. As to conditions: 3 uM with 0.5 uM TTX, n = 5; control 18.1 ± 2.2 mV.
Data set [6] concerns rebound burst activity in STN neurons. In words: Brain slice current clamp, rebound burst activity in STN neurons. In kind it is cell-based, rat.
Data set [7] relates to haloperidol-induced catalepsy in rats. Nature of the data set: Haloperidol-induced catalepsy. Type of data set: in vivo, rat. Conditions: 1, 3, 10 and 30 mg/kg p.o.; haloperidol 0.75 mg/kg; comparable to A2A inhibitor 56.6 mg/kg p.o.
Data set [8] can be described thus: Brain and plasma concentrations across the catalepsy dose range. Conditions: rat. Type of data set: in vivo.
Another data set in a line: in vivo. As to conditions: male, Sprague-Dawley, rat, plasma, iv, 1 mg/kg.
Data set [9] is described as follows: in vitro. Conditions: rat, plasma, pH 7.4.
Data set [10] in a line: in vitro. As to conditions: human, plasma, pH 7.4.
The nature of data set [11]: in vitro. As to conditions: rat, liver microsomes, pH 7.4.
Data set [12] is described as follows: in vitro. As to conditions: human, liver microsomes, pH 7.4.
In a further data set the target is P450 2C9 (Homo sapiens, UniProt P11712). Nature of the data set: P450 inhibition 2C9.
In another data set the target is T1, P450 1A2 (Homo sapiens, UniProt P05177).
T1 sequence (P05177 1-516): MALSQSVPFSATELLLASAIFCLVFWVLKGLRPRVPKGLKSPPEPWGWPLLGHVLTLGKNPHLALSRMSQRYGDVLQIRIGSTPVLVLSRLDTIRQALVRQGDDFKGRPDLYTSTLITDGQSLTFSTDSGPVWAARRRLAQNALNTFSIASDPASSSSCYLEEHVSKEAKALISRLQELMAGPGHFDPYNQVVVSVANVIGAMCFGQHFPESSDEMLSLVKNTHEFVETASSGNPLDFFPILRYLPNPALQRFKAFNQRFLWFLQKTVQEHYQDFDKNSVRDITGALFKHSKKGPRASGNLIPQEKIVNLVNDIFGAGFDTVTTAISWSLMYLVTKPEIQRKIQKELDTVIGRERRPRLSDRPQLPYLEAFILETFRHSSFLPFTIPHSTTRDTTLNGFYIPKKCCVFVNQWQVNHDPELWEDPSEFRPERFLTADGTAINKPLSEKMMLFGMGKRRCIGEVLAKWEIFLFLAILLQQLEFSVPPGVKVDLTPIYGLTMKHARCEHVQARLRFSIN
In words: P450 inhibition 1A2.

The target in another data set is P450 2D6 (Homo sapiens, UniProt P10635). Nature of the data set: P450 inhibition 2D6.
The nature of data set [13]: Intrinsic clearance in rat liver microsomes. As to conditions: obtained from rat liver microsomes.
The conditions of data set [14]: no reference given; cited from earlier work.
The target in the next data set is Cav3.2 (Homo sapiens, UniProt O95180). Nature of the data set: Cav3.2 IonWorks Quattro population patch clamp electrophysiology. Type of data set: cell-based. As to conditions: Cav3 subtype not stated.
Cav3.2, sequence (O95180 whole entry): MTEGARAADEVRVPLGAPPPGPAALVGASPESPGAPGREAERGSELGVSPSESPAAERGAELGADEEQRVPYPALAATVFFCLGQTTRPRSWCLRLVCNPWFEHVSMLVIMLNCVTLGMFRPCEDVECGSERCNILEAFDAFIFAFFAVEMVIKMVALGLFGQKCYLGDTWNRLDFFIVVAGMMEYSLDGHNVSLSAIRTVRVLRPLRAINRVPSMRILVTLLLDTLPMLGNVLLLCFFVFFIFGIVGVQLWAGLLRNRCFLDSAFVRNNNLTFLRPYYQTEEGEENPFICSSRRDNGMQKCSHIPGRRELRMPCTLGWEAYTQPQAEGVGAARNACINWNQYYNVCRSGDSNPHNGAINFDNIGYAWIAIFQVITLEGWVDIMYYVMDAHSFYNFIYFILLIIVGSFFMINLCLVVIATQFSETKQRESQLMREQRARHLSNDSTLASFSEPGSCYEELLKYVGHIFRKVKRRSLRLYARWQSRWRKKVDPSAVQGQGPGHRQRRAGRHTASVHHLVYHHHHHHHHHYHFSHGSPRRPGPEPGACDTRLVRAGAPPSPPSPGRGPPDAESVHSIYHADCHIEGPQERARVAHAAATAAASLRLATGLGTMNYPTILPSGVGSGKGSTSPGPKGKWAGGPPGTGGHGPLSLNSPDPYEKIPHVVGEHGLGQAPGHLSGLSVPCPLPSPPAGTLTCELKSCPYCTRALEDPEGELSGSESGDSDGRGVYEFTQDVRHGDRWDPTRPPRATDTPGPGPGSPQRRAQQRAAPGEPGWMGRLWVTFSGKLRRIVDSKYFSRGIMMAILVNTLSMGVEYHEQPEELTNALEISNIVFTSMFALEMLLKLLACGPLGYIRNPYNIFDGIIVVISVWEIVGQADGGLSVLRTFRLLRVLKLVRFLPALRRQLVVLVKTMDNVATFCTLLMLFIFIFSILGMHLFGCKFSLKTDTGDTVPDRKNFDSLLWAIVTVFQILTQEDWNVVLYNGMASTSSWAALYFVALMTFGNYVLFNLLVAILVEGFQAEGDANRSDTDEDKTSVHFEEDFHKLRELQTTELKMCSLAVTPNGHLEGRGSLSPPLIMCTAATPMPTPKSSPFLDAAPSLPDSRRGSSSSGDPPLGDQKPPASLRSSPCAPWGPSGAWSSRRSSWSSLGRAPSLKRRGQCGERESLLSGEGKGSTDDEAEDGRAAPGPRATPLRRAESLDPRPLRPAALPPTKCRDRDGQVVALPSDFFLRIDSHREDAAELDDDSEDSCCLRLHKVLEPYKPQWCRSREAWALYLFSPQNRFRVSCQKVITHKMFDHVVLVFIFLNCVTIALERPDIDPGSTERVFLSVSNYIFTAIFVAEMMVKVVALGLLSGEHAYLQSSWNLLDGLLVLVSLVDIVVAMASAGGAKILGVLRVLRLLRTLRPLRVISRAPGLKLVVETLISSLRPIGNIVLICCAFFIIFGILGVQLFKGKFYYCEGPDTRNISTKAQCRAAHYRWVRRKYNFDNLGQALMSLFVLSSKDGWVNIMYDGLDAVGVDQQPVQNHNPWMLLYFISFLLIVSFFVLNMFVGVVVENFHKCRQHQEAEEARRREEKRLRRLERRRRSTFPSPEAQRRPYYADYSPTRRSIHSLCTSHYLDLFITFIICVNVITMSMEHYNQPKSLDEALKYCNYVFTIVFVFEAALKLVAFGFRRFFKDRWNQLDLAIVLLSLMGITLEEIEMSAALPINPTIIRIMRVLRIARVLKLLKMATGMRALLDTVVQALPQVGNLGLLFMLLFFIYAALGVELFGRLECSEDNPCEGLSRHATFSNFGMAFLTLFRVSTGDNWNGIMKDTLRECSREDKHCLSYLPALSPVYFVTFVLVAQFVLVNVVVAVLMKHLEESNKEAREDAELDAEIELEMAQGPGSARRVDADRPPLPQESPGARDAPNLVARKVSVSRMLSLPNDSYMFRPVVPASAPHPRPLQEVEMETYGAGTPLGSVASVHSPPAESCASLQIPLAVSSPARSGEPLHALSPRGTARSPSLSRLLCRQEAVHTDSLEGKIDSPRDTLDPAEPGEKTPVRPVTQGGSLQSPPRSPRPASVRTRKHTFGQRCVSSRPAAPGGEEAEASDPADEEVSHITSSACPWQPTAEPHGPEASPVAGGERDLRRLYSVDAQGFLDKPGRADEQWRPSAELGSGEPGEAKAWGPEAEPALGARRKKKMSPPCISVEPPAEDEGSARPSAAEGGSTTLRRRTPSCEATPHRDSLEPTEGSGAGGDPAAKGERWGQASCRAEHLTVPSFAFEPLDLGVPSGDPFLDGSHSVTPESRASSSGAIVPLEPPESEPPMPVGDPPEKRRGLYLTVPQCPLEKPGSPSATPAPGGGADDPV
Setting [15] is: read-out: IC50 in Ca2+ fluorescence assay, Cav3.2 HEK293, full CRC.

Cav3.2 channel expressed in HEK293 cells, sequence (O95180 whole entry): as above
sigma 1, sequence (Q99720 whole entry): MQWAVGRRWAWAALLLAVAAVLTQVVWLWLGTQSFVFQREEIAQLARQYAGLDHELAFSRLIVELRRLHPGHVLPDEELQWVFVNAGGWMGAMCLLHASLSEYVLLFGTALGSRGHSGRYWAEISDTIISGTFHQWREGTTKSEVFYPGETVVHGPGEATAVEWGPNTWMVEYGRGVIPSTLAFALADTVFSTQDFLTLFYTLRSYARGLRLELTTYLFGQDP

In the case of `CC(C)(C)CCN1CCC[C@@H](NC(=O)COc2ccc(F)cc2Cl)C1` [CID45115614], the “T-type Ca2+ channel inhibition, result in words” value in data set [1] (3-amino piperidine library) was “devoid of activity”.

Usually IC50 stands for the concentration that inhibits the measured activity by half. The inhibition is the drop in the measured response relative to a control, in per cent. As usually defined, the Kp is the ratio of the level in a tissue or fluid to that in plasma or blood. The term MRT denotes the average time that molecules of a dose stay in the body. As a reminder, the clearance is the rate of elimination divided by the concentration. Broadly, the half-life is the time in which the quantity being followed falls by half. A lower half-life goes with rapid decline. Usually fraction unbound stands for the share of the substance not bound to proteins or other matrix. A word on the CLint scaled: it is the capacity of the preparation to metabolise the compound, expressed as a volume cleared per time. For the compound `CC(C)(C)CCN1CC2C(CNC(=O)c3cc(Cl)cc(Cl)c3)C2C1` (stereo not shown) [ML218, 3,5-dichloro-N-((3-(3,3-dimethylbutyl)-3-azabicyclo[3.1.0]hexan-6-yl)methyl)benzamide], the IC50 in data set [1] was 150 nM; at Cav3.3, 274 nM; at P450 2C9, over 30000 nM; against P450 1A2, 10800 nM; on P450 2D6, 1700 nM. The “Number of targets significantly bound in 68-assay panel” value in data set [2] was “only significantly bind two targets”. In the data set on sodium channel site 2, the “Binding to sodium channel site 2” value is “significantly bind”. For the same compound, the “Binding to sigma 1” value on sigma 1 was “significantly bind”. In addition, in the data set on L-type calcium channels, the “% inhibition, L-type calcium channels” value turned out to be 17%. Moreover, the figures for the inhibition at 10 µM on N-type calcium channels and at hERG were 49% and 48%, respectively. Further, the Kp in data set [3] was determined as 7.4. In data set [4] (3 uM, n = 7), the “T-currents, % of the control value” is 45.1 ± 5.1%. For the same compound, the “Reduction of T-type Ca2+ current” value in [4] (3 μM, voltage clamp, bath application) is on record as ~ 45%. For the same compound, the “Amplitude of LTS” value in [5] stood at 8.7 ± 2.1 mV. In addition, the “Depression of rebound burst activity” value in data set [6] (3 μM, -100 pA followed by depolarizing current) is reported as over 60%. The “Number of rebound spikes” value in data set [6] (3 uM, n = 6, control 16.0 ± 2.8 spikes/burst) turned out to be 5.7 ± 0.5 spikes/burst. For the same compound, the “Reversal of haloperidol-induced catalepsy” value in data set [7] is “reversed cataleptic behavior”. Besides, the results for the “[brain]” value in data set [8] (3 mg/kg p.o.), in [8] (10 mg/kg p.o.) and in [8] (30 mg/kg p.o.) were 1.66 µM, 5.03 µM and 17.7 µM, respectively. Also, the “[plasma]” value in [8] (3 mg/kg p.o.) was 98 nM; in data set [8] (10 mg/kg p.o.) it was 282 nM; in data set [8] (30 mg/kg p.o.), 1200 nM. The same compound gave an MRT in “in vivo” of about 7 h. In “in vivo”, this compound gave a clearance of 56 mL/min/kg. This compound gave a half-life in “in vivo” of 7 h. The fraction unbound at 4 h amounted to 0.091 in the data set “in vitro [9]” and 0.033 in “in vitro [10]”. Further, the values for the CLint scaled at 1 μM in “in vitro [11]” and in the data set “in vitro [12]” were 115 mL/min/kg and 12.7 mL/min/kg, respectively. Moreover, in data set [13], the “predicted hepatic clearance CLHEP” value is on record as 43 mL/min/kg.

For the compound `COCC(=O)O[C@]1(CCN(C)CCCc2nc3ccccc3[nH]2)CCc2cc(F)ccc2[C@@H]1C(C)C` [compound 3, mibefradil], the “Penetration into CNS” value in data set [14] was “poor penetration into CNS”.

Regarding `CC(C)(C)Cc1nnc(NC(=O)COc2ccc(Cl)cc2Cl)o1` [compound 18], in data set [1] (setting [15]), the IC50 was determined as 810 nM. Moreover, the “Potency in patch EP relative to Ca2+ fluorescence, in words” value at Cav3.2 is “significant right-shift in potency”.

For the compound `CC(C)(C)CCN1CCC[C@H](NC(=O)COc2ccc(F)cc2Cl)C1` [compound 23], in [1] (setting [15]), the IC50 worked out at 2400 nM.
